According to US12060330B2, “Therapeutic indazoles” (priority 2017, dated 2024):
“Also recorded” adds a separate entry of the source.

The compounds below were run on DG167-resistant M. tuberculosis mutants.
Format: cell-based

Row | Compound | susceptibility of DG167-resistant mutants
1 | COc1nc2ccc(Br)cc2cc1[C@@H](c1ccccc1)[C@@](O)(CCN(C)C)c1cccc2ccccc12 [BDQ, bedaquiline] | remained susceptible
2 | O=[N+]([O-])c1cn2c(n1)OC[C@@H](OCc1ccc(OC(F)(F)F)cc1)C2 [PA824] | remained susceptible
3 | CC(C)=CCC/C(C)=C/CNCCNC1C2CC3CC(C2)CC1C3 (stereo not shown) [SQ109] | remained susceptible
4 | NNC(=O)c1ccncc1 [INH, isoniazid, reference compound] | remained susceptible
5 | CC[C@@H](CO)NCCN[C@@H](CC)CO [EMB, ethambutol] | remained susceptible
6 | CCc1cc(C(N)=S)ccn1 [ETH, ethionamide] | remained susceptible

Each compound was assayed on mycolic acid biosynthesis.
Format: cell-based, M. tuberculosis

Row | Compound | inhibition of mycolic acid biosynthesis
7 | CCCCS(=O)(=O)Nc1ccc2cnn(C)c2c1 [DG167, N-(1-methyl-1H-indazol-6-yl)butane-1-sulfonamide] | dose-dependent inhibition; also recorded: resistant to DG167-mediated inhibition of mycolic acid biosynthesis
